Patent US20180044343A1, “BICYCLIC IMIDAZOLO DERIVATIVE” (Sumitomo Dainippon Pharma Co., Ltd., priority 2015, published 2018)

Legend:
PDE1C [1] = target: T1, PDE1C (Homo sapiens, UniProt Q14123); test: In vitro HTRF PDE1 inhibition assay (PDE1C); format: biochemical; conditions: 100 nM cyclic GMP
Description: (§1) An exemplary procedure for the in vitro Homogenous Time Resolved Fluorescence assay, which can be used to determine the inhibitory action of compounds of the present invention toward PDE1 or its isoforms, follows.
(§2) The HTRF PDE1 assay utilized the HTRF (Homogenous Time Resolved Fluorescence) technology, which is based on the competition between unlabeled cyclic nucleotide and cyclic nucleotide labeled with XL665 for the binding to cyclic nucleotide-specific antibody labeled with cryptate. The HTRF signal is thus inversely proportional to the concentration of cyclic nucleotide being measured. Since phosphodiesterases break down cyclic nucleotides, the HTRF signal was used to determine PDE activity.
(§3) The Cisbio cGMP HTRF assay kit (Cat no: 62GM2PEC) was utilized. Cyclic GMP was diluted to 200 nM in HTRF assay buffer (1 mM CaCl2, 10 mM MgCl2, 10 mM Tris-HCl, 0.1% BSA, pH 7.4). 10 μl of compound or DMSO was diluted in 200 nM cyclic GMP solution and added to wells of a 96 well white plate to give 100 nM cyclic GMP in 1% DMSO final concentration. PDE (1A3, 1B or 1C) was diluted to 2× working concentration in HTRF assay buffer with 2 μg/ml Calmodulin, and 10 μl was added to initiate the reaction. The plate was then incubated for 45 minutes at 27° C. d2-Labelled cyclic GMP and anti-cGMP cryptate were diluted in 50 mM phosphate buffer, 0.8 M KF, 1% Triton X100, 0.2% BSA, pH 7.0. Following incubation 10 μl d2-cGMP, then 10 μl anti cGMP cryptate were added to each well and the plate was incubated for 60 minutes at room temperature. The plate was then read on Perkin Elmer EnVision at 2 different FRET readings ex/em 340 nm/665 nm and 340 nm/615 nm.
(§4) Compounds having an IC50 of <1 μM are denoted as +++. Compounds having an IC50 of 1-10 μM are denoted as ++. Compounds having an IC50 of 10-100 μM are denoted as +.

PDE1B [2] = target: T2, PDE1B (Homo sapiens, UniProt Q01064); test: In vitro HTRF PDE1 inhibition assay (PDE1B); format: biochemical; conditions: in vitro PDE1B HTRF Assay; read-out: IC50
T2 sequence (Q01064 whole entry): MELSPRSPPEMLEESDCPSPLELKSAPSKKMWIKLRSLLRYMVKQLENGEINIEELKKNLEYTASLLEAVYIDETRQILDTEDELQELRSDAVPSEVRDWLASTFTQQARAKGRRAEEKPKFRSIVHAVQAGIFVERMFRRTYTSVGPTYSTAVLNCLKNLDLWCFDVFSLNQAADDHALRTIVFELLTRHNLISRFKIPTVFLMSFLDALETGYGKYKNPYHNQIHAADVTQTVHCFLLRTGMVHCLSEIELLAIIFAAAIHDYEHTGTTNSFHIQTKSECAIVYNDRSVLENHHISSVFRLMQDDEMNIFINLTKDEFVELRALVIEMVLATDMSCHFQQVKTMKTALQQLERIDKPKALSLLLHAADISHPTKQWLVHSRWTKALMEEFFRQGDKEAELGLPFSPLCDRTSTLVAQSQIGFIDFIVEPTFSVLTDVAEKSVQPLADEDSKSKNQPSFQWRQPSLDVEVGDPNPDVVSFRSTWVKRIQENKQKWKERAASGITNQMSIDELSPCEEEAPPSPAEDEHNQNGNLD

PDE1A3 [3] = target: T3, PDE1A3 (Homo sapiens, UniProt P54750); test: In vitro HTRF PDE1 inhibition assay (PDE1A3); format: biochemical; conditions: PDE1A3, 100 nM cyclic GMP
Description: as §1, §2, §3, §4

PDE1A3 [4] = target: T3, PDE1A3; test: In vitro SPA PDE1 inhibition assay (PDE1A3); format: biochemical; conditions: PDE1A3, [3H]-cGMP 100 nM
Experimental: (§5) The commercially available Scintillation Proximity Assay (SPA) system (Perkinelmer) was used for PDE1 inhibition assays. SPA Yttrium Silicate beads preferentially binds to non-cyclic GMP compared to cyclic GMP (cGMP) in the presence of zinc sulphate, which enables to measure the amount of enzyme reaction product ([^3H]-GMP) by scintillation counting.
(§6) For PDE1 inhibition assay, 10 μl of the test compounds in 5% dimethyl sulfoxide diluted in SPA assay buffer (1 mM CaCl2, 10 mM MgSO4, 10 mM Tris-HCl, pH 7.4) were placed in a 96-well white microtiter plate, and 20 μl of [^3H]-cGMP solution (100 nM final concentration, Perkinelmer) in SPA assay buffer was added. Assays were initiated by adding 20 μl of PDE (1A3, 1B or 1C) enzyme solution including calmodulin (final concentration 1 μg/ml). After 30 min incubation at 27° C., the reaction was stopped by the addition of 50 μl of a suspension of 10 mg/ml SPA beads in 18 mM ZnSO4. The microtiter plates were settled for 60 min, and then were measured in a TopCount NXT scintillation counter (PerkinElmer). IC50 values were determined from sigmoidal curves by plotting the percentage of PDE activity versus log compound concentration. IC50 was defined as the concentration of the test compounds required to inhibit the cyclic nucleotide hydrolyzing activities of tested PDEs by 50%.

PDE1B [5] = target: T2, PDE1B; test: In vitro SPA PDE1 inhibition assay (PDE1B); format: biochemical; conditions: [3H]-cGMP 100 nM
Experimental: as §5, §6

PDE1C [6] = target: T1, PDE1C; test: In vitro SPA PDE1 inhibition assay (PDE1C); format: biochemical; conditions: [3H]-cGMP 100 nM
Experimental: as §5, §6

[7] = Evaluation of bioavailability, PK test in rats; format: in vivo; conditions: rat; 7 week-old SD rats, intravenous vs oral administration, plasma LC-MS
Experimental: This test can be used to assess pharmacokinetics of the compounds of the present invention. Each compound of the invention was administered to 7 week-old SD rats intravenously with a solution in saline: 0.1N HCl=9:1 or orally with a 0.5% suspension in methyl cellulose, and each blood sample was collected at an appropriate interval as follows:
5, 15, and 30 minutes, and 1, 2, 4, 6, and 24 hours after intravenous administration
15 and 30 minutes, and 1, 2, 4, 6, and 24 hours after oral administration
The plasma was obtained from each blood, and the concentration of each compound in the plasma was measured with an LC-MS to calculate each pharmacokinetic parameter based on the concentration change.

Compound | IC50 (PDE1C [1]) [µM] | IC50 (PDE1B [2]) [nM] | IC50 (PDE1A3 [3]) [µM] | IC50 (PDE1A3 [4]) [µM] | IC50 (PDE1B [5]) [µM] | IC50 (PDE1C [6]) [µM] | bioavailability [7] [%]
CCO[C@H]1CC[C@@H](COc2nn3c(C4CCOCC4)ncc3c(=O)n2C)CC1 [Example 247] | < 1 | < 1000 | < 1 |  |  |  | 
CCn1c(OC[C@H]2CC[C@H](C(F)(F)F)CC2)nn2c(C3CCOCC3)ncc2c1=O [Example 251] | < 1 | < 1000 | < 1 |  |  |  | 
CCn1c(OC2CCC(F)(F)CC2)nn2c(C3CCOCC3)ncc2c1=O [Example 304, 2-[(4,4-difluorocyclohexyl)oxy]-3-ethyl-7-(tetrahydro-2H-pyran-4-yl)imidazo[5,1-f][1,2,4]triazin-4(3H)-one] | < 1 | < 1000 | < 1 |  |  |  | 
Cc1nn2c(C3CCOCC3)ncc2c(=O)n1Cc1ccccc1 [Example 238, 3-Benzyl-2-methyl-7-(tetrahydro-2H-pyran-4-yl)imidazo[5,1-f][1,2,4]triazin-4(3H)-one] | < 1 | < 1000 | < 1 | 0.137 | 0.145 | 0.027 | 
CCO[C@H]1CC[C@H](Oc2nn3c(C4CCOCC4)ncc3c(=O)n2CC)CC1 [Example 315] | < 1 | < 1000 | < 1 |  |  |  | 
CCn1c(OCCC2(C(F)(F)F)CC2)nn2c(C3CCOCC3)ncc2c1=O [Example 283] | < 1 | < 1000 | < 1 |  |  |  | 
COc1nn2c(C3CCOCC3)ncc2c(=O)n1C[C@H]1CC[C@H](OC)CC1 [Example 253] | < 1 | < 1000 | < 1 |  |  |  | 
COC[C@H]1CC[C@@H](Oc2nn3c(C4CCOCC4)ncc3c(=O)n2C)CC1 [Example 318] | < 1 | < 1000 | < 1 |  |  |  | 
CCn1c(O[C@H]2CC[C@H](C(F)(F)F)CC2)nn2c(C3CCOCC3)ncc2c1=O [Example 306] | < 1 | < 1000 | < 1 |  |  |  | 
Cn1c(OC2CCC(C)(C)CC2)nn2c(C3CCOCC3)ncc2c1=O [Example 302] | < 1 | < 1000 | < 1 |  |  |  | 
CCn1c(O[C@H]2CC[C@@H](OC)CC2)nn2c(C3CCOCC3)ncc2c1=O [Example 313] | < 1 | < 1000 | < 1 |  |  |  | 
CO[C@H]1CC[C@@H](Oc2nn3c(C4CCOCC4)ncc3c(=O)n2C)CC1 [Example 312] | < 1 | < 1000 | < 1 |  |  |  | 
CCOC[C@H]1CC[C@H](Oc2nn3c(C4CCOCC4)ncc3c(=O)n2C)CC1 [Example 256, 2-{[trans-4-(ethoxymethyl)cyclohexyl]oxy}-3-methyl-7-(tetrahydro-2H-pyran-4-yl)-imidazo-[5,1-][1,2,4]triazin-4(3H)-one] | < 1 | < 1000 | < 1 |  |  |  | 14.3
CCn1c(O[C@H]2CC[C@H](OC)CC2)nn2c(C3CCOCC3)ncc2c1=O [Example 310] | < 1 | < 1000 | < 1 |  |  |  | 
CCc1nn2c(C3CCOCC3)ncc2c(=O)n1CC1CCC(F)(F)CC1 [Example 239, 3-[(4,4-Difluorocyclohexyl)methyl]-2-ethyl-7-(tetrahydro-2H-pyran-4-yl)imidazo[5,1-f][1,2,4]triazin-4(3H)-one] | < 1 | < 1000 | < 1 | 0.065 | 0.079 | 0.125 | 
Cn1c(OCc2ccc(F)cc2)nn2c(C3CCOCC3)nc(F)c2c1=O [Example 116, 5-Fluoro-2-[(4-fluorobenzyl)oxy]-3-methyl-7-(tetrahydro-2H-pyran-4-yl)imidazo[5,1-f][1,2,4]triazin-4(3H)-one] | < 1 | < 1000 | < 1 | 0.207 | 0.084 | 0.771 | 
CNc1nn2c(C3CCOCC3)ncc2c(=O)n1Cc1ccccc1 [Example 200] | < 1 | < 1000 | < 1 | 0.133 | 0.109 | 0.024 | 
CCn1c(O[C@H]2CC[C@H](COC)CC2)nn2c(C3CCOCC3)ncc2c1=O [Example 317, 3-ethyl-2-{[trans-4-(methoxymethyl)cyclohexyl]oxy}-7-(tetrahydro-2H-pyran-4-yl)-imidazo[5,1-][1,2,4]triazin-4(3H)-one] | < 1 | < 1000 | < 1 | 0.042 | 0.027 | 0.194 | 
CCOC[C@H]1CC[C@H](Oc2nn3c(C4CCOCC4)ncc3c(=O)n2CC)CC1 [Example 258] | < 1 | < 1000 | < 1 |  |  |  | 
CCn1c(OC[C@H]2CC[C@H](OC)CC2)nn2c(C3CCOCC3)ncc2c1=O [Example 91] | < 1 | < 1000 | < 1 | 0.074 | 0.028 | 0.199 | 
COc1nn2c(C3CCOCC3)ncc2c(=O)n1C[C@H]1CC[C@@H](OC)CC1 [Example 101] | < 1 | < 1000 | < 1 | 0.121 | 0.096 | 0.192 | 
CCO[C@H]1CC[C@@H](COc2nn3c(C4CCOCC4)ncc3c(=O)n2CC)CC1 [Example 250] |  | < 1000 |  |  |  |  | 
O=c1[nH]c(N2CCCC2c2cccc(Cl)c2)nn2c(C3CCOCC3)ncc12 (stereo not shown) [Example 128] |  | < 1000 |  |  |  |  | 
Cn1c(OC2CCCCC2)nn2c(C3CCOCC3)ncc2c1=O [Example 255, 2-(cyclohexyloxy)-3-methyl-7-(tetrahydro-2H-pyran-4-yl)imidazo[5,1-f][1,2,4]triazin-4(3H)-one] | < 1 | < 1000 | < 1 |  |  |  | 
CO[C@H]1CC[C@H](Oc2nn3c(C4CCOCC4)ncc3c(=O)n2C)CC1 [Example 309] | 1 to 10 | < 1000 | < 1 |  |  |  | 
CO[C@@H]1CCN(c2nn3c(C4CCOCC4)ncc3c(=O)n2C)C1 [Example 188] |  | < 1000 |  |  |  |  | 
CCO[C@H]1CC[C@H](COc2nn3c(C4CCOCC4)ncc3c(=O)n2CC)CC1 [Example 249] | < 1 | < 1000 | < 1 |  |  |  | 
CCCn1c(OC)nn2c(C3CCOCC3)ncc2c1=O [Example 270] |  | < 1000 |  |  |  |  | 
Cn1c(OCc2ccc(-c3ccccn3)cc2)nn2c(C3CCOCC3)ncc2c1=O [Example 44] |  | < 1000 |  |  |  |  | 
CC(C)c1ncc2c(=O)[nH]c(N3CCCC3c3ccccc3Cl)nn12 (stereo not shown) [Example 132] |  | < 1000 |  |  |  |  | 
